# Reference: PubChem BioAssay AID179 (DTP/NCI, 2004)
# Values joined by “and” are separate entries in the source; they are usually repeats but may differ in a detail not shown here. Equal entries are not always repeated. Active and inactive are the calls of the source.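 Rule for the calls: active = compounds giving half or more protection of infected cells from virus-caused growth loss, again on retest; inactive = the rest.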
# System: CEM cells HIV-1 protection, formazan growth assay
# Experiment: NCI AIDS Antiviral Assay
# Details: for IC50: measured here: growth of uninfected CEM cells
# Outline: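 Human CEM cells, uninfected and HIV-1-infected, received five drug concentrations, and growth was read by soluble formazan assay. Compounds giving at least 50% protection were retested; reproducible 100% protection defined confirmed active.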
SMILES,EC50,IC50,outcome
C(=Nc1cnc2ccccc2c1)c1ccnc2ccccc12,> 66.1 µM,3.55 µM,
CCOC(=O)c1[nH]n(-c2ccccc2)c(=O)c1/C=N/C(=S)Nc1ccc(Cl)cc1Cl,> 200 µM,> 200 µM,
NC(=O)C(N)(c1ccccc1)c1ccccc1,,,inactive
COc1ccc(N2C(=O)C3c4[nH]c5ccc(C)cc5c4C4CCC(c5ccccc5)CC4C3C2=O)cc1 (stereo not drawn),,,inactive
O=C(/C=C\c1ccccc1)Oc1ccc(/C=C2\CCCCC2=O)cc1,> 200 µM,7.08 µM,
COc1c(OC(C)=O)cc2c(OC(C)=O)c1CC(C)CC(OC)C(O)C(C)/C=C(\C)C(OC(N)=O)C(OC)/C=C\C=C(/C)C(=O)N2 (stereo not drawn),> 195 µM,3.02 µM,
C=C=C(CC1CCCCC1=O)S(=O)(=O)c1ccccc1 (stereo not drawn),> 200 µM,6.46 µM,
COc1cccc(N=N/C(=N/NC(=O)c2cc(Cl)ccc2O)c2ccc(N(CCC#N)CCC#N)cc2C)c1,> 200 µM,29.5 µM,
Cc1cc(C)c2c(=N)c3ccccc3n(CCCCCCn3c4ccccc4c(=N)c4c(C)cc(C)nc43)c2n1,> 2 µM,0.302 µM,
COC(=O)[C@]1(C)CCCC2(C)C3=C(CCC21)CC1(CC3)SCCS1 (stereo partly drawn),> 186 µM,74.1 µM,
N#CC(C#N)=Cc1ccc(C=C(C#N)C#N)cc1,> 200 µM,8.51 µM,
CC1=C2CC(C)(C)/C=C\C(=O)/C(C)=C\C3=C[C@H](C)C[C@]3(O2)C1=O,> 0.2 µM,0.0955 µM,
CCOC(=O)CC(C(=O)OCC)S(=O)(=O)O (stereo not drawn),> 200 µM,> 200 µM,
CC(c1ccccc1)/[N+]([O-])=C/c1ccccc1 (stereo not drawn),> 1120 µM,> 1120 µM,
CSc1nc(-c2ccc(Cl)cc2)c(C#N)c(=O)[nH]1,,,inactive
O=c1ccn(C2SC(CO)CC2F)c(=O)[nH]1 (stereo not drawn),> 25.1 µM,> 25.1 µM,
C=C1CC(COc2ccc3ccc(=O)oc3c2)(c2ccccc2)OC1=O (stereo not drawn),> 2 µM,0.724 µM,
COC(=O)c1ccc2c(O)c(O)ccc2c1,> 200 µM,3.16 µM,
[N-]=[N+]=NC[C@H]1OCO[C@H](CN=[N+]=[N-])[C@@H](OCCOCCCl)[C@@H]1OCCOCCCl,> 200 µM,148 µM,
COC1/C=C/OC2(C)Oc3c(C)c(O)c4c(O)c(c(/C=N/N5C(C)CN(Cc6ccc(C)cc6)CC5C)c(O)c4c3C2=O)NC(=O)C(C)=C/C=C/C(C)C(O)C(C)C(O)C(C)C(OC(C)=O)C1C (stereo not drawn),> 200 µM,3.89 µM,
N#C[C@H](C(=O)c1ccccc1F)c1nc2ccccc2s1,> 200 µM,93.3 µM,
OC1=C2CCCCCC2=[N+]2CCCCC2C1 (stereo not drawn),> 200 µM,> 200 µM,

SMILES,EC50,IC50,outcome
COc1ccc2c3c([nH]c2c1)CCN(CCCC(=O)c1ccc(F)cc1)C3,> 200 µM,32.4 µM,
CCCC(=O)NC1Cc2cc(C)cc(C)c21 (stereo not drawn),> 45.7 µM,> 45.7 µM,
NC(=O)NCCSC1(SCCNC(N)=O)CCCCC1,> 200 µM,> 200 µM,
COc1ccc2nc3cccc([N+](=O)[O-])c3c(NCCNCCO)c2c1,> 0.2 µM,0.112 µM,
[O-][n+]1onc2c1/C(=N/O)CCC2,> 200 µM,> 200 µM,
COc1cc(/C=C2\CCC(C)/C(=C\c3cc(OC)c(OC)c(OC)c3)C2=O)cc(OC)c1OC (stereo not drawn),> 200 µM,7.24 µM,
Nc1c(C(=O)Nc2ccccc2)[n+]([O-])c2ccccc2[n+]1[O-],,,inactive
CO/C(=C/C(=O)c1ccccc1)C(=O)c1ccccc1,> 115 µM,61.7 µM,
CC(=O)C1=C(C)NC2C=CC=CN12 (stereo not drawn),> 1410 µM,676 µM,
COC(=O)c1ccccc1C1CN=NC12Cc1c(C)cc(C)cc1C2=O (stereo not drawn),> 174 µM,28.2 µM,
CN1CCC(OC(c2ccccc2)c2ccc(Cl)cc2)C1 (stereo not drawn),,,inactive
O=C(O)C(=Cc1ccc([N+](=O)[O-])cc1)C(=O)O,> 1050 µM,550 µM,
CN(C)c1nc(N(C)C)nc(N(C)CN(C)c2nc(N(C)C)nc(N(C)C)n2)n1,> 50.1 µM,> 50.1 µM,
S=c1[nH]c2ccccc2[nH]c1=S,> 200 µM,26.3 µM,
CCN(c1cccc(NC(=S)Nc2ccccc2N(CC)c2cc(-c3ccccc3)no2)c1)c1cc(-c2ccccc2)no1,> 200 µM,> 200 µM,
CC1=C2C(=O)C(C)(C)C=C2C(=O)[C@](C)(O)C12CC2,,,inactive
CSC1=Nc2ccccc2N(C)c2c1c(-c1ccccc1)nn2C,> 200 µM,43.7 µM,
COC1=CC(=O)c2c(O)c(CO)cc(O)c2C1=O,,,inactive
CC(=O)Oc1ccc(C2SCc3nc4ccccc4n32)cc1 (stereo not drawn),> 200 µM,18.2 µM,
N#Cc1c(/N=C/c2cc(Cl)cc(Cl)c2O)sc2c1CCC2,> 200 µM,> 200 µM,
CC(=O)OC(C)(C)CCC(=O)[C@](C)(O)[C@H]1[C@H](O)C[C@@]2(C)[C@@H]3CCc4c(cc(OC5OC(CO)C(O)C(O)C5O)c(O)c4C)C3(C)C(=O)C[C@]12C (stereo partly drawn),> 200 µM,> 200 µM,
CC(=O)OCc1ncccc1C(OC(C)=O)OC(C)=O,> 891 µM,> 891 µM,

SMILES,EC50,IC50,outcome
CSC1=C(c2ccc(Cl)cc2)SC(N2CCCCC2)N1c1ccc([N+](=O)[O-])cc1 (stereo not drawn),> 200 µM,97.7 µM,
CCOP(=O)(OCC)C(Nc1ccc(C(=O)O)cc1)c1ccc(C(Nc2ccc(C(=O)O)cc2)P(=O)(OCC)OCC)cc1 (stereo not drawn),> 200 µM,> 200 µM,
O=C1N=CC2(N=N2)C(=O)N1,> 200 µM,15.5 µM,
CC(C)CNC(=O)Cn1c2c(c3ccccc31)CCCC2,> 200 µM,81.3 µM,
NS(=O)(=O)c1ccc(NC(=S)/N=C\c2c(O)[nH]c(=O)[nH]c2=O)cc1,> 200 µM,> 200 µM,
O=C1C=C(c2c(O)ccc3ccccc23)c2cc(O)ccc2C1=O,> 112 µM,6.61 µM,
CC(C)(C)[Si](C)(C)OCC1OC(n2ccc(=O)[nH]c2=O)C(O[Si](C)(C)C(C)(C)C)C1CCN(O)CC1OC(n2ccc(=O)[nH]c2=O)C(O[Si](C)(C)C(C)(C)C)C1O[Si](C)(C)C(C)(C)C (stereo not drawn),> 100 µM,> 100 µM,
O=C1NC(=O)C(C(=O)C(=O)Nc2cc(Cl)ccc2Cl)C(=O)N1,> 380 µM,302 µM,
N=C(N)c1ccc(OCCCOc2ccc(C(=N)N)cc2)cc1,> 200 µM,17 µM,
COc1cc(OC)c2c(=O)c3ccccc3n3c(C(C)O)cc1c23 (stereo not drawn),> 200 µM,4.79 µM,
[N-]=[N+]=NC1CC(n2cc(Cc3ccccc3)c(N)nc2=O)OC1CO (stereo not drawn),> 724 µM,> 724 µM,
COC1=CC2(c3ccccc3)C(=CC1=O)CCN2C(=O)c1ccccc1 (stereo not drawn),,,inactive
COC(=O)c1ccc(NCC2=CC(=O)C=CC2=O)cc1,> 200 µM,1 µM,
O=C1C(O)C(O)C(O)C(O)C1O (stereo not drawn),> 200 µM,> 200 µM,
Cc1ccc(C)c2c1OC(=O)C1CNCOC21 (stereo not drawn),> 50.1 µM,> 50.1 µM,
CC(=O)Nc1ccc(S(=O)(=O)n2oc(=O)c(-c3ccccc3)c2N)cc1,> 200 µM,105 µM,
CCOC(=O)c1ccc(Nc2nc3ccccc3nc2C(=O)OCC)cc1,> 200 µM,> 200 µM,
CCCCCCCCCCCCOC1OC(CO)C(O)C(O)C1O (stereo not drawn),> 85.1 µM,38 µM,
Cc1ccc(S(=O)(=O)SC/C=C\CSS(=O)(=O)c2ccc(C)cc2)cc1,,,inactive
CC12OC(=O)C(C#N)C1(C)C1C(=O)CCCC12 (stereo not drawn),,,inactive
C[C@@H](CN1CC(=O)NC(=O)C1)N1CC(=O)NC(=O)C1,> 933 µM,91.2 µM,
CSc1c(N(C)C)c(=O)c1=S,> 200 µM,4.9 µM,

SMILES,EC50,IC50,outcome
SCCSCCCSCCS,> 22.9 µM,> 22.9 µM,
O=C1C(CN2CCCCC2)CCC1CN1CCCCC1 (stereo not drawn),> 200 µM,8.13 µM,
Cc1ccc(/C=C/c2nnc(N/N=C/c3ccc4c(c3)OCO4)[nH]c2=O)cc1,> 200 µM,95.5 µM,
CNC(=S)SSSC(=S)NC,,,inactive
COc1ccc2cc3[n+](cc2c1OC)CCc1cc2c(cc1-3)OCO2,> 339 µM,6.76 µM and 3.31 µM,
O=C1ONN(c2ccccc2)/C1=C/N=Nc1ncnc2nc[nH]c12,162 µM,> 200 µM,
COc1ccc(CC2Cc3ccccc3CCN2)cc1OC (stereo not drawn),,,inactive
CCN(CC)CCCNc1nccc2c(C)c3c(cc12)c1cnccc1n3C,,,inactive
CCCCC(=O)c1c(O)c2ccccc2oc1=O,> 200 µM,29.5 µM,
COCC(C)(COP(=O)(N1CCOCC1)N1CCOCC1)CC(C)COP(=O)(N1CCOCC1)N1CCOCC1 (stereo not drawn),,,inactive
O=C(OC1C2OC(=O)c3cc(O)c(O)c(O)c3Oc3cc4c(c(O)c3O)-c3c(cc(O)c(O)c3O)C(=O)OCC3OC(O)C(OC(=O)c5cc(O)c(O)c(O)c5Oc5cc6c(c(O)c5O)-c5c(cc(O)c(O)c5O)C(=O)OC1C(COC6=O)OC2O)C(OC(=O)c1cc(O)c(O)c(O)c1)C3OC4=O)c1cc(O)c(O)c(O)c1 (stereo not drawn),> 69.2 µM,34.7 µM,
COc1cc(C[S+]2CCCC2)c(SC)cc1C[S+]1CCCC1,> 83.2 µM,> 83.2 µM,
O=C1CC2(CCC3=C(O2)c2ccccc2NC(=O)C3)C(=O)c2ccccc2N1 (stereo not drawn),> 69.2 µM,> 69.2 µM,
CSc1c(C#N)c(O)n(-c2ccc(Cl)cc2)c(=O)c1C#N,> 200 µM,33.1 µM,
Cn1cc(NC(=O)Nc2cc(C(=O)Nc3cc(C(=O)Nc4cc(C(=O)Nc5ccc6cc(S(=O)(=O)O)cc(S(=O)(=O)O)c6c5)n(C)c4)n(C)c3)n(C)c2)cc1C(=O)Nc1cc(C(=O)Nc2cc(C(=O)Nc3ccc4cc(S(=O)(=O)O)cc(S(=O)(=O)O)c4c3)n(C)c2)n(C)c1,0.977 µM,117 µM,
COc1cccc2c1C(=O)C1=C(C2=O)C(O)CC(C)(C)O1 (stereo not drawn),> 200 µM,33.9 µM,
COc1ccc(C(=O)C(c2ccc(OC)cc2)C2C(=O)Oc3ccccc32)cc1 (stereo not drawn),> 34.7 µM,> 34.7 µM,
O=C(N=Nc1ccc(Br)cc1)NNc1ccc(Br)cc1,> 200 µM,12.9 µM,
CN(C)NC(=S)C(F)(F)C(F)(F)F,> 200 µM,10.2 µM,
CC1(C)CC(=O)C(/C=N/C(=S)Nc2ccc(S(N)(=O)=O)cc2)=C(O)C1,> 200 µM,> 200 µM,
